Our source for the IC50 values is US20080119534A1, “Benzimidazole Derivatives as Therapeutic Agents” (Trans Tech Pharma, Inc, priority 2001, published 2008).

What is called IC50 is the point on the concentration scale where inhibition reaches its midpoint. A lower IC50 goes with inhibition by little substance.

Counter-ions that a name gives are not always drawn.

Test [1] addresses T1, sRAGE (ligand Amyloid-β) (Homo sapiens, UniProt Q15109).
T1 construct: extracellular domain can be isolated by proteolysis of RAGE to generate soluble RAGE (sRAGE) comprised of the V and C domains
The experiment in a line: ELISA assay: inhibition of sRAGE binding to plate-bound β-amyloid. Particulars: sRAGE binding to immobilised β-amyloid; concentration at which 50% signal has been inhibited. On the procedure: (§1) S100b, β-amyloid and CML (500 ng/100 μL/well) in 100 mM sodium bicarbonate/sodium carbonate buffer (pH 9.8) is loaded onto the wells of a NUNC Maxisorp flat bottom 96-well microtitre plate. The plate is incubated at 4° C. overnight. The wells are aspirated and treated with 50 mM imidazole buffer saline (pH 7.2) (with 1 mM CaCl2/MgCl2) containing 1% bovine serum albumin (BSA) (300 μL/well) for two h at 37° C.
(§2) Test compounds are dissolved in nanopure water (concentration: 10-100 μM). DMSO may be used as co-solvent. 25 μL of test compound solution in 2% DMSO is added, along with 75 μL sRAGE (4.0×10^−4 mg/mL FAC) to each well and samples are incubated for 1 h at 37° C. The wells are washed 3 times with 155 mM NaCl pH 7.2 buffer saline and are soaked 10 seconds between each wash.
(§3) Non-radioactive binding is performed by adding:
(§4) 10 μL Biotinylated goat F(ab′)2 Anti-mouse IgG. (8.0×10^−4 mg/mL, FAC)
(§5) 10 μL Alkaline phosphatase Streptavidin (3×10^−3 mg/mL FAC)
(§6) 10 μL Polyclonal antibody for sRAGE (FAC 6.0×10^−3 mg/mL)
(§7) to 5 mL 50 mM imidazole buffer saline (pH 7.2) containing 0.2% bovine serum albumin and 1 mM CaCl2. The mixture is incubated for 30 minutes at 37° C. 100 μL complex is added to each well and incubation is allowed to proceed at rt for 1 h. Wells are washed 3 times with wash buffer and soaked 10 s between each wash. 100 μL 1 mg/mL (pNPP) in 1 M diethanolamine (pH adjusted to 9.8 with HCl) is added. Color is allowed to develop in the dark for 1 to 2 h at rt. The reaction is quenched with 10 μL of stop solution (0.5 N NaOH in 50% ethanol) and the absorbance is measured spectrophotometrically with a microplate reader at 405 nm.
(In general: In an ELISA, binding on a coated surface is turned into a signal by an enzyme label.)

Test [2] deals with T2, sRAGE (ligand S-100b) (Homo sapiens, UniProt Q15109).
T2 construct: extracellular domain can be isolated by proteolysis of RAGE to generate soluble RAGE (sRAGE) comprised of the V and C domains
T2 sequence (Q15109 23-342 limits assumed): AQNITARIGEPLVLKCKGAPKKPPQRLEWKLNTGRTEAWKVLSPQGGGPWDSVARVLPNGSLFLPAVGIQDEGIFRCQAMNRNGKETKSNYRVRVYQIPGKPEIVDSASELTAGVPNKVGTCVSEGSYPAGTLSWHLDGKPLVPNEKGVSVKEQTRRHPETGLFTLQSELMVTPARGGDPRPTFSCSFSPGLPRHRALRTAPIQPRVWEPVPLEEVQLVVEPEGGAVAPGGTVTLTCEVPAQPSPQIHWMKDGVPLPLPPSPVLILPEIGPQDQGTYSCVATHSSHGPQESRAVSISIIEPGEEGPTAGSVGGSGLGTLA
The experiment in a line: ELISA assay: inhibition of sRAGE binding to plate-bound S100b. Particulars: sRAGE binding to immobilised S100b; concentration at which 50% signal has been inhibited. As to the method: as §1, §2, §3, §4, §5, §6, §7

The target in test [3] is T3, sRAGE (ligand Carboxymethyl Lysine (CML)) (Homo sapiens, UniProt Q15109).
T3 construct: extracellular domain can be isolated by proteolysis of RAGE to generate soluble RAGE (sRAGE) comprised of the V and C domains
T3 sequence (Q15109 23-342 limits assumed): as above
The test can be described thus: ELISA assay: inhibition of sRAGE binding to plate-bound CML. Particulars: sRAGE binding to immobilised CML; concentration at which 50% signal has been inhibited. As to the method: as §1, §2, §3, §4, §5, §6, §7

T1 sequence (Q15109 23-342 limits assumed): as above

As to `CCCCn1c([C@@H](Cc2ccc(OCCc3ccc(Cl)cc3)cc2)NC(=O)OC(C)(C)C)nc2ccc(OCCCN(CC)CC)cc21` [Example 9], the IC50 in test [1], in test [2] and in test [3] was 0.5 to 1 µM each time.
Consider `CCCn1c([C@H](N)Cc2ccc(OCc3ccccc3)cc2)nc2ccc(OCCCN(CC)CC)cc21` [Example 16, 2-[(1R)-2-(4-Benzyloxyphenyl)-1-amino-1-ethyl]-3-propyl-5-(3-diethylamino-1-propoxy)benzimidazole], for which the values for the IC50 in test [1], in test [2] and in test [3] were 10 to 20 µM, 5 to 10 µM and 10 to 20 µM, respectively.
For `CCCCn1c([C@@H](Cc2ccc(OCc3ccccc3)cc2)NC(=O)OC(C)(C)C)nc2ccc(OCCCN(CC)CC)cc21` [Example 1, 2-[(1R)-2-(4-Benzyloxyphenyl)-1-tert-butoxycarbonylamino-1-ethyl]-3-butyl-5-(3-diethylamino-1-propoxy)benzimidazole], the IC50 in test [1] fell in the range of 1 to 5 µM; in test [2] it was 1 to 5 µM; in test [3], 0.5 to 1 µM.
For `CCCCn1c([C@H](N)Cc2ccc(OCc3ccccc3)cc2)nc2ccc(OCCCN(CC)CC)cc21` [Example 2, 2-[(1R)-2-(4-Benzyloxyphenyl)-1-amino-1-ethyl]-3-butyl-5-(3-diethylamino-1-propoxy)benzimidazoleTrihydrochloride], the IC50 in test [1], in test [2] and in test [3] was 1 to 5 µM in each case.
As for `CCCCn1c([C@@H](Cc2ccc(OCc3ccccc3)cc2)NC(=O)OC(C)(C)C)nc2cc(OCCCN(CC)CC)ccc21` [Example 3, 2-[(1R)-2-(4-Benzyloxyphenyl)-1-tert-butoxycarbonylamino-1-ethyl]-3-butyl-6-(3-diethylamino-1-propoxy)benzimidazole], the concentration for half-maximal inhibition (IC50) in test [1], in test [2] and in test [3] was 1 to 5 µM in each case.
For `CCN(CC)CCCOc1ccc2nc([C@H](N)Cc3ccc(OCc4ccccc4)cc3)n(CCCN(CC)CC)c2c1` [Example 12, 2-[(1R)-2-(4-Benzyloxyphenyl)-1-amino-1-ethyl]-3-(3-diethylamino-1-propyl)-5-(3-diethylamino-1-propoxy)benzimidazole], the IC50 in test [1], in test [2] and in test [3] was 1 to 5 µM throughout.
Regarding `CCN(CC)CCCOc1ccc2nc([C@@H](Cc3ccc(OCc4ccccc4)cc3)NC(=O)OC(C)(C)C)n(CC)c2c1` [Example 11, 2-[(1R)-2-(4-Benzyloxyphenyl)-1-(tert-butoxycarbonylamino)-1-ethyl]-3-ethyl-5-(3-diethylamino-1-propoxy)benzimidazole], the half-inhibitory concentration (IC50) in test [1], in test [2] and in test [3] was 1 to 5 µM in each case.
For `CCCn1c([C@@H](Cc2ccc(OCc3ccccc3)cc2)NC(=O)OC(C)(C)C)nc2ccc(OCCCN(CC)CC)cc21` [Example 15, 2-[(1R)-2-(4-Benzyloxyphenyl)-1-(tert-butoxycarbonylamino)-1-ethyl]-3-propyl-5-(3-diethylamino-1-propoxy)benzimidazole], the IC50 in test [1], in test [2] and in test [3] was 5 to 10 µM throughout.
`CCCCn1c([C@H](N)Cc2ccc(OCc3ccccc3)cc2)nc2cc(OCCCN(CC)CC)ccc21` [Example 4, 2-[(1R)-2-(4-Benzyloxyphenyl)-1-amino-1-ethyl]-3-butyl-6-(3-diethylamino-1-propoxy)benzimidazole]: the IC50 in test [1], in test [2] and in test [3] was 1 to 5 µM throughout.
Regarding `CCN(CC)CCCOc1ccc2[nH]c([C@@H](Cc3ccc(OCc4ccccc4)cc3)NC(=O)OC(C)(C)C)nc2c1` [Example 5, 2-[(1R)-2-(4-Benzyloxyphenyl)-1-tert-butoxycarbonylamino-1-ethyl]-6-(3-diethylamino-1-propoxy)benzimidazole], the IC50 in test [2] lay in the range of 10 to 20 µM; in test [3] it was 5 to 10 µM.
Consider `CCN(CC)CCCOc1ccc2nc([C@H](N)Cc3ccc(OCc4ccccc4)cc3)n(Cc3ccccc3)c2c1` [Example 14, 2-[(1R)-2-(4-Benzyloxyphenyl)-1-amino-1-ethyl]-3-benzyl-5-(3-diethylamino-1-propoxy)benzimidazole], for which the concentration for half-maximal inhibition (IC50) in test [1] was in the range of 10 to 20 µM; in test [2], 5 to 10 µM; in test [3], 5 to 10 µM.
Regarding `CCCCn1c([C@@H](Cc2ccc(OCC)cc2)NC(=O)OC(C)(C)C)nc2ccc(OCCCN(CC)CC)cc21` [Example 8, 2-[(1R)-2-(4-Ethoxyphenyl)-1-(tert-butoxycarbonylamino)-1-ethyl]-3-butyl-5-(3-diethylamino-1-propoxy)benzimidazole], the IC50 in test [1] fell in the range of 5 to 10 µM; in test [2], 5 to 10 µM; in test [3] it was 1 to 5 µM.
Consider `CCN(CC)CCCOc1ccc2nc([C@@H](Cc3ccc(OCc4ccccc4)cc3)NC(=O)OC(C)(C)C)n(CCCN(CC)CC)c2c1` [Example 10, 2-[(1R)-2-(4-Benzyloxyphenyl)-1-(tert-butoxycarbonylamino)-1-ethyl]-3-(3-diethylamino-1-propyl)-5-(3-diethylamino-1-propoxy)benzimidazole], for which the IC50 fell in the range of 5 to 10 µM in test [1], 1 to 5 µM in test [2] and 1 to 5 µM in test [3].
As for `CCN(CC)CCCOc1ccc2[nH]c([C@H](N)Cc3ccc(OCc4ccccc4)cc3)nc2c1` [Example 6, 2-[(1R)-2-(4-Benzyloxyphenyl)-1-amino-1-ethyl]-6-(3-diethylamino-1-propoxy)benzimidazole], the half-maximal inhibitory concentration (IC50) in test [1] lay in the range of 5 to 10 µM; in test [2], 5 to 10 µM; in test [3] it was 1 to 5 µM.
In the case of `CCCCn1c(C(Cc2cccc(OCc3ccccc3)c2)NC(=O)OC(C)(C)C)nc2ccc(OCCCN(CC)CC)cc21` (centres unmarked) [Example 7, 2-[2-(3-Benzyloxyphenyl)-1-(tert-butoxycarbonylamino)-1-ethyl]-3-butyl-5-(3-diethylamino-1-propoxy)benzimidazole], the half-inhibitory concentration (IC50) in test [1], in test [2] and in test [3] was 1 to 5 µM in each case.
Take `CCN(CC)CCCOc1ccc2nc([C@@H](Cc3ccc(OCc4ccccc4)cc3)NC(=O)OC(C)(C)C)n(Cc3ccccc3)c2c1` [Example 13, 2-[(1R)-2-(4-Benzyloxyphenyl)-1-(tert-butoxycarbonylamino)-1-ethyl]-3-benzyl-5-(3-diethylamino-1-propoxy)benzimidazole]: the IC50 in test [1], in test [2] and in test [3] was 5 to 10 µM in each case.
